# Positions count from the first letter of the chain named. “Also recorded” adds a separate entry of the source. Square brackets hold non-standard residues; d marks the D form. Ends that are not written are not given here. Lys(Me3) = C[N+](C)(C)CCCC[C@H](N)C(=O)O
# Key:
# K241A KDM4A [1] = biological target: T1, K241A KDM4A (Homo sapiens, UniProt O75164, K241A); experiment: 1H NMR substrate-uncoupled turnover of 2OG to succinate, K241A KDM4A; assay type: biochemical
# T1 construct: two recombinant variants of KDM4A (residues 1–359) in Escherichia coli BL21(DE3) cells; His6 (N); made in house; host or cells: Escherichia coli BL21(DE3)
# T1 sequence (O75164 1-359 K241A): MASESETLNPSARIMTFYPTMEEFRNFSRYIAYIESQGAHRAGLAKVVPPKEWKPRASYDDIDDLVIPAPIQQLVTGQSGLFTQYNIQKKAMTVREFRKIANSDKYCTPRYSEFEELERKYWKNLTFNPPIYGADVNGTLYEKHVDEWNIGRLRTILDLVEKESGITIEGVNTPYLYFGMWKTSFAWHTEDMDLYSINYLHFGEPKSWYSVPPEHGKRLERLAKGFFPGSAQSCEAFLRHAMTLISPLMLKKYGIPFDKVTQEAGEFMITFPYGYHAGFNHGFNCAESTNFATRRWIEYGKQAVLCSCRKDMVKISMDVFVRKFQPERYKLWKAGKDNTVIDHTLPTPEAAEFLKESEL
# Procedure: (§1) Samples containing either WT or K241A (20.5 μM), an excess of 2OG (2 mM), ascorbate (1 mM), and ferrous iron (100 μM) in ammonium formate buffer (50 mM, pH 7.5) were subjected to ^1H NMR analysis at 1.5 min intervals over a 30‐min reaction. […] Experiments were then conducted in the presence of a histone H3 eight‐residue fragment peptide containing N ^ϵ‐trimethyllysine at position 9 (H3K9me3, sequence: ARKme3STGGK).
# (§2) 1H NMR activity and inhibition assays: 20.5 µM KDM4A WT or KDM4A K241A was
# (§3) mixed with 2 mM 2OG, 1 mM sodium L-ascorbate, and 100 µM ferrous iron (source
# (§4) (NH4)2FeSO4.6H2O), in 50 mM ammonium formate buffer pH 7.5 10 % v/v D2O in an Ep-
# (§5) pendorf tube, before being immediately transferred to an NMR tube and subjected to 1H NMR
# (§6) analysis (700 MHz). For samples containing peptide substrate (sequence: ARKme3STGGK),
# (§7) the peptide concentration was 300 µM. For inhibition assays, samples contained 100 µM in-
# (§8) hibitor (JIB-04 or NOG) and the spectra were acquired after 35 min. Note: residual protein
# (§9) buffer was also present. NMR analyses were carried out on a Bruker AVIII 700 spectrometer
# (§10) equipped with an inverse TCI 1H/13C/15N cryoprobe and running TOPSPIN 3.2 software. The
# (§11) deuterium signal was used as an internal lock signal and 1H chemical shifts are reported in
# (§12) ppm relative to the solvent HDO resonance (δH 4.7 ppm).
# WT KDM4A [2] = biological target: T2, WT KDM4A (Homo sapiens, UniProt O75164); experiment: 1H NMR substrate-uncoupled turnover of 2OG to succinate, WT KDM4A; assay type: biochemical; design: two recombinant variants of KDM4A (residues 1–359) in Escherichia coli BL21(DE3) cells; His6 (N); made in house; host or cells: Escherichia coli BL21(DE3); details: WT 20.5 μM, 2OG 2 mM, ascorbate 1 mM, Fe(II) 100 μM, 50 mM ammonium formate pH 7.5, no peptide; 1H NMR 700 MHz, 1.5 min intervals over 30 min
# T2 sequence (O75164 1-359): T1 sequence (O75164 1-359 K241A) with A241K
# Procedure: Samples containing either WT or K241A (20.5 μM), an excess of 2OG (2 mM), ascorbate (1 mM), and ferrous iron (100 μM) in ammonium formate buffer (50 mM, pH 7.5) were subjected to ^1H NMR analysis at 1.5 min intervals over a 30‐min reaction.
# as §2, §3, §4, §5, §9, §10, §11
# ppm relative to the solvent HDO resonance (δH 4.7 ppm). The solvent signal was reduced by
# WT KDM4A [3] = biological target: T2, WT KDM4A; details: ref 12b; cited from earlier work
# Procedure: Studies were then carried out to evaluate the ability of the two KDM4A proteins to catalyse the demethylation of a histone peptide substrate.
# WT KDM4A [4] = biological target: T2, WT KDM4A; experiment: 1H NMR inhibition assay of uncoupled 2OG turnover, WT KDM4A; assay type: biochemical; design: two recombinant variants of KDM4A (residues 1–359) in Escherichia coli BL21(DE3) cells; His6 (N); made in house; host or cells: Escherichia coli BL21(DE3); details: WT KDM4A 20.5 μM; inhibitor 100 μM; 2OG 2 mM; spectra after 35 min; pH 7.5
# Procedure: as §1, §2, §3, §4, §5, §6, §7, §8, §9, §10, §11, §12
# K241A KDM4A [5] = biological target: T1, K241A KDM4A; experiment: 1H NMR inhibition assay of uncoupled 2OG turnover, K241A KDM4A; assay type: biochemical; details: K241A KDM4A 20.5 μM; inhibitor 100 μM; 2OG 2 mM; spectra after 35 min; pH 7.5
# Procedure: as §1, §2, §3, §4, §5, §6, §7, §8, §9, §10, §11, §12
# K241A KDM4A [6] = biological target: T1, K241A KDM4A; experiment: 1H NMR succinate formation in presence of H3 eight-residue peptide, K241A KDM4A; assay type: biochemical; details: K241A KDM4A 20.5 μM; peptide 300 µM; 2OG 2 mM; pH 7.5
# Procedure: as §1, §2, §3, §4, §5, §6, §7, §8, §9, §10, §11, §12
# WT KDM4A [7] = biological target: T2, WT KDM4A; experiment: 1H NMR succinate formation in presence of H3 eight-residue peptide, WT KDM4A; assay type: biochemical; design: two recombinant variants of KDM4A (residues 1–359) in Escherichia coli BL21(DE3) cells; His6 (N); made in house; host or cells: Escherichia coli BL21(DE3); details: peptide 300 µM
# Procedure: as §1, §2, §3, §4, §5, §6, §7, §8, §9, §10, §11, §12
# K241A KDM4A [8] = biological target: T1, K241A KDM4A; experiment: MALDI-TOF MS demethylation assay, K241A KDM4A; assay type: biochemical; details: K241A KDM4A 1 μM, peptide 100 μM, 2OG 100 μM, ascorbate 100 μM, Fe(II) 10 μM, 50 mM HEPES pH 7.5, 40 min, 37 °C
# Procedure: Initially, we produced two recombinant variants of KDM4A (residues 1–359) in Escherichia coli BL21(DE3) cells; a truncated wild‐type sequence (KDM4A WT), or a variant with an alanine in place of Lys241 (K241A KDM4A). Studies were then carried out to evaluate the ability of the two KDM4A proteins to catalyse the demethylation of a histone peptide substrate.
# MALDI-TOF MS activity assays: 1 µM WT KDM4A or KDM4A K241A was incubated
# with 100 µM disodium 2-oxoglutarate (2OG), 100 µM sodium L-ascorbate, 10 µM ferrous iron
# (source (NH4)2FeSO4.6H2O) and 100 µM of 15-residue H3 fragment peptide containing the
# requisite trimethyllysine mark (Table S1) in 50 mM HEPES buffer pH 7.5 for 40 min at 37 °C.
# Assays were quenched with an equal vol-
# ume of methanol, and the extent of the reaction determined using MALDI-TOF mass spec-
# trometry (MS). Data were analysed using MASSLYNX 4.0 (Waters).
# K241A KDM4A [9] = biological target: T1, K241A KDM4A; experiment: 1H CPMG NMR binding assay, K241A KDM4A; details: for binding to K241A versus WT KDM4A: CPMG NMR, K241A compared with WT
# Procedure: as §1
# (§13) NMR analyses were carried out on a Bruker AVIII 700 spectrometer
# as §10, §11, §12
# (§14) 1H CPMG NMR binding assays: Typical experimental parameters for Carr-Purcell-Mei-
# (§15) boom-Gill (CPMG) NMR spectroscopy were as follows: total echo time, 40 ms; relaxation
# (§16) delay, 2 s; and number of transients, 264. The PROJECT-CPMG sequence was applied
# (§17) (90°x−[τ−180°y−τ−90°y−τ−180°y−τ]n−acq).[4] Water suppression was achieved by presatura-
# (§18) tion. Protein (KDM4A WT or KDM4A K241A) was titrated into an assay mixture of 40 µM
# K241A KDM4A [10] = biological target: T1, K241A KDM4A; details: mixed-mode inhibition of K241A; cited from earlier work
# From the text: The overall MS, NMR spectroscopy and fluorescence polarisation studies imply that K241 has a role in KDM4A catalysis. […] Succinate formation by the K241A variant is stimulated by a histone fragment peptide, and a fluorescently labelled histone peptide bind ...
# WT KDM4A [11] = biological target: T2, WT KDM4A; experiment: 1H CPMG NMR binding assay, WT KDM4A; design: two recombinant variants of KDM4A (residues 1–359) in Escherichia coli BL21(DE3) cells; His6 (N); made in house; host or cells: Escherichia coli BL21(DE3); details: protein titrated into 40 µM JIB-04, 100 µM Fe(II), 50 mM ammonium formate pH 7.5, 10 % D2O, 600 MHz CPMG, quadratic fit, read-out: K D (JIB-04), provisional
# Procedure: as §1, §13, §10, §11, §12, §14, §15, §16, §17, §18
compound,measurement,setting,value
"O=C(O)CCC(=O)C(=O)O [2OG, 2‐oxoglutarate]",initial succinate formation rate,"K241A KDM4A [1]; K241A 20.5 μM, 2OG 2 mM, ascorbate 1 mM, Fe(II) 100 μM, 50 mM ammonium formate pH 7.5, no peptide, 1H NMR 700 MHz, 1.5 min intervals over 30 min",1.55 µM/min
same,"succinate formation rates, WT versus K241A","K241A KDM4A [1]; in the absence of peptide, WT and K241A KDM4A compared",near identical
same,initial succinate formation rate,WT KDM4A [2],1.35 µM/min
same,K M (2OG),WT KDM4A [3],26 ± 7 µM
O=C(O)CNC(=O)C(=O)O [N‐oxalylglycine],inhibition of uncoupled 2OG turnover,WT KDM4A [4],inhibited
same,inhibition of uncoupled 2OG turnover,K241A KDM4A [5],inhibited
AR[Lys(Me3)]STGGK [histone H3 eight‐residue fragment peptide containing N ϵ‐trimethyllysine at position 9 (also called H3K9me3)],effect of peptide on succinate formation rate,K241A KDM4A [6],markedly increased
same,effect of peptide on succinate formation rate,"WT KDM4A [7]; WT KDM4A 20.5 μM, 2OG 2 mM, pH 7.5",markedly increased
same,"stimulation of succinate formation, WT versus K241A",WT KDM4A [7]; WT compared with K241A,"Stimulation of succinate formation was greater for WT than for K241A KDM4A; also recorded: Succinate formation is stimulated by H3K9me3 peptide, but more readily with WT KDM4A"
TPVKKKAR[Lys(Me3)]SAGAAK [H1.4K26 peptide],demethylation of histone peptide,K241A KDM4A [8],low‐level demethylation
Clc1ccc(N/N=C(\c2ccccc2)c2ccccn2)nc1 [JIB‐04],binding to K241A versus WT KDM4A,K241A KDM4A [9],preferential binding of JIB‐04 to the K241A variant over the WT enzyme; also recorded: binding to K241A appears stronger
same,binding to K241A versus WT KDM4A,K241A KDM4A [9]; listed as JIB-04,Binding appears stronger to the K241 variant than KDM4A WT
same,Kd,"K241A KDM4A [9]; K241A KDM4A, protein titrated into 40 µM JIB-04, 100 µM Fe(II), 50 mM ammonium formate pH 7.5, 10 % D2O, 600 MHz CPMG, quadratic fit, read-out: K D (JIB-04), provisional",7 ± 2 µM
same,inhibition of uncoupled 2OG turnover,WT KDM4A [4],inhibition was more pronounced
same,mode of inhibition,K241A KDM4A [10],mixed‐mode inhibition
same,Kd,WT KDM4A [11],22 ± 5 µM
same,inhibition of uncoupled 2OG turnover,K241A KDM4A [5],inhibition was more pronounced

# — article PMC5969224, “Lysine‐241 Has a Role in Coupling 2OG Turnover with Substrate Oxidation During KDM4‐Catalysed Histone Demethylation” (Chembiochem, 2018)
